Test results reported in publication PMC3620317, “Optimisation of Embryonic and Larval ECG Measurement in Zebrafish for Quantifying the Effect of QT Prolonging Drugs” (PLoS ONE, 2013).
Where “and” joins values, the source holds several entries; their conditions need not be identical. Identical values can stand only once.

Tests used:
[1] = test system: 3 dpf zebrafish; assay: Exclusion of motion artefact: myocardial contractility under excitation-contraction uncouplers; assay type: in vivo; conditions: for Effect on contraction of cardiomyocytes / myocardial contractility: drug added to embryo holding chamber
Description: Firstly, recordings were performed with and without cromakalim and secondly, comparing invasive (intracardial) and non-invasive surface recordings. Cromakalim was added to the embryo holding chamber and ECG signals were recorded before and after drug exposure (QTc values shown in Table S1). […] Therefore, as an independent approach we compared ECG signals from invasive and non-invasive electrode positioning. There was minimal difference between recordings taken invasively and non-invasively (n = 5; Fig. 2B, Table S2).

[2] = test system: 3 dpf zebrafish larvae; assay: ECG recording in zebrafish larvae before and after drug treatment; conditions: for Mean interval duration QT / Mean interval duration QTc / Mean interval duration RR / Mean QTc interval duration, After: 3 dpf; for Mean interval duration QT / Mean interval duration QTc / Mean interval duration RR: n = 10; for Effect on heart rate (ƒH): immobilising agents, MESAB at very high concentrations, tubocurarine at any tested concentration; for Effect on QTc interval (in words): 3 dpf zebrafish larvae, over the tested concentrations; for AV block: at particular concentrations and exposure times
Description: For all experiments, except the anaesthetic and tubocurarine experiments, fish larvae were anaesthetised in ethyl-3 aminobenzoate methanesulfonate (0.3 mg/ml; Sigma) for 5–10 mins before transfer into 3 ml of embryo medium in the plate used for subsequent measurements. Once anaesthetised, one embryo was then transferred to the ECG recording plate (mini Petri dish with an unscented paraffin wax surface, containing 3 ml of fresh E3 embryo medium without MESAB). The embryo was positioned ventrally within a groove in the wax, and the tip (2 µm diameter) of a filled pre-pulled borosilicate glass micropipette (P84, World Precision Instruments) was positioned on the skin surface between the ventricle and atrium (no penetration) using micromanipulators (Narishige) and Inchworm step motors (Burleigh), viewed under a Nikon microscope (SMZ600). The micropipettes were filled with MicroFil (P85, World Precision Instruments) in 3 M potassium acetate solution (Sigma) and coloured with methylene blue (Sigma) to easier visualise the tips during recordings. A chloridised silver wire which carried the electrical signal to the amplifier was inserted into the micropipettes and a second reference electrode placed in the surrounding medium during recordings. The differential amplifier (NPI electronics) used for recording was operated in DC mode with the high pass filter set at 0.1 Hz. The raw ECG signals were digitised (PowerLab; ADI Instruments) and viewed using LabChart 7 (ADI Instruments).
Non-invasive recordings were taken by applying slight pressure over the surface of the heart using the tip of a glass capillary. Invasive recordings were taken by increasing the speed and also the distance moved by the step motor to puncture the skin over the heart. All of the recording equipment was housed on an air table within a grounded Faraday cage to minimise background noise. Experiments were performed at room temperature (21°C) except when otherwise stated. Temperature was controlled using a sensor placed in the recording plate and a homemade heating element (Cryocon 24 temperature controller). For optimisation experiments, recordings were taken for 5 mins. For the temperature experiments, embryos were initially acclimatised to each temperature for 30 mins before taking a recording of 5 mins. For drug treatments, ECG recordings were taken continuously after drug addition. A 5 mins segment before drug addition and a 15 minute segment where QT prolongation was first apparent by visual observation were selected for analysis.
All drug stocks were made using either DMSO or distilled water depending on solubility, then diluted using E3 embryo medium to make up the final concentrations for recording purposes with DMSO levels at 1%. ECG recordings were taken for 5 mins in 3 ml of embryo medium before addition of drug directly to the recording plate (1 ml) to produce the desired concentration by undergoing a 1 in 4 dilution.
Analysis of the digitised ECG signal was carried out using LabChart and the mean intervals for the ECG parameters R-R, QRS, QT and QTc were calculated. For drug treatments the percentage change in the corrected QT interval (QTc) before and after drug administration was compared. One way ANOVA analysis was then performed to determine statistical significance between differences observed.
Z factor scores were also calculated to determine the robustness of the ECG system as a screening tool, using the mean QTc percentage change before and after drug treatment for each individual fish. The values before drug treatment were standardised. The Z factor score was calculated using the following equation: Z = 1– [3×(σp+σn)/(µp - µn)],
where µp and σp represent mean and SD after treatment, while µn and σn represent mean and SD before treatment. Z factor scores fall into the following range: 1 = ideal, 0.5–1 = excellent, 0–0.5 = marginal, <0 = poor.

[3] = parameters: method as in earlier work; conditions: zebrafish larvae ref 56; cited from earlier work
[4] = MESAB 0.1 mg/ml, prior anaesthesia 5–10 minutes
[5] = MESAB 0.3 mg/ml, prior anaesthesia 5–10 minutes
[6] = MESAB 0.5 mg/ml, prior anaesthesia 5–10 minutes
[7] = MESAB 1 mg/ml, prior anaesthesia 5–10 minutes
[8] = tubocurarine 100 μM, continuous exposure
[9] = tubocurarine 400 μM, continuous exposure

Molecule: CC(=O)C(C)=NO [BDM, 2,3-butanedione-monoxime]
- Adverse effects on ECG and embryo survival [1]: adverse effects on the ECG and embryo survival
- Effect on contraction of cardiomyocytes / myocardial contractility [1]: completely remove myocardial contractility

Molecule: CCOC(=O)c1cccc(N)c1.CS(=O)(=O)O [MESAB, ethyl-3 aminobenzoate methanesulfonate]
- Mean interval duration QT [2, 4]: 0.3428 s
- Mean interval duration QTc [2, 4]: 0.4944 s
- Mean interval duration RR [2, 4]: 0.4798 s
- Mean interval duration QT [2, 5]: 0.3614 s
- Mean interval duration QTc [2, 5]: 0.5049 s
- Mean interval duration RR [2, 5]: 0.5123 s
- Mean interval duration QT [2, 6]: 0.3515 s
- Mean interval duration QTc [2, 6]: 0.5012 s
- Mean interval duration RR [2, 6]: 0.4917 s
- Mean interval duration QT [2, 7]: 0.3656 s
- Mean interval duration QTc [2, 7]: 0.5133 s
- Mean interval duration RR [2, 7]: 0.5517 s
- Effect on R-R interval ([2]; MESAB at high concentrations (1 mg/ml), P<0.05): increase of the R-R interval
- Effect on heart rate (ƒH) [2]: induced bradycardia

Molecule: Cc1ccc2c(c1)C(=O)C1(O)CCN(c3ccccc3)C1=N2 (stereo not drawn) [blebbistatin]
- Adverse effects on ECG and embryo survival [1]: adverse effects on the ECG and embryo survival
- Effect on contraction of cardiomyocytes / myocardial contractility [1]: completely remove myocardial contractility

Molecule: CC1(C)Oc2ccc(C#N)cc2C(N2CCCC2=O)C1O (stereo not drawn) [cromakalim]
- Effect on QTc interval (in words) [2]: no perturbation to the QTc interval
- Mean QTc interval duration, After ([2]; cromakalim 10 µM, n = 5, before drug 0.458 s): 0.461 s
- Mean QTc interval duration, After ([2]; cromakalim 25 µM, n = 5, before drug 0.459 s): 0.460 s
- Mean QTc interval duration, After ([2]; cromakalim 50 µM, n = 5, before drug 0.469 s): 0.464 s
- Mean QTc interval duration, After ([2]; cromakalim 100 µM, n = 5, before drug 0.453 s): 0.449 s
- Mean QTc interval duration, After ([2]; cromakalim 200 µM, n = 5, before drug 0.476 s): 0.476 s
- Mean QTc interval duration, After ([2]; cromakalim 300 µM, n = 5, before drug 0.475 s): 0.472 s
- Mean QTc interval duration, After ([2]; cromakalim 400 µM, n = 5, before drug 0.468 s): 0.474 s
- Effect on contraction of cardiomyocytes / myocardial contractility [1]: did not reduce contraction of cardiomyocytes

Molecule: O=C(CCCN1CCC(O)(c2ccc(Cl)cc2)CC1)c1ccc(F)cc1 [haloperidol]
- Effect on QTc interval (in words) [2]: apparent QT prolongation, which was found to be similar at various concentrations
- AV block ([2]; 3 dpf larvae): induced an atrioventricular (AV) block and 2∶1 AV block
- Mean QTc interval duration, After ([2]; haloperidol 50 µM, n = 8, before drug 0.499 s): 0.586 s
- Mean QTc interval duration, After ([2]; haloperidol 100 µM, n = 8, before drug 0.511 s): 0.603 s
- Mean QTc interval duration, After ([2]; haloperidol 200 µM, n = 8, before drug 0.504 s): 0.593 s
- Mean QTc interval duration, After ([2]; haloperidol 300 µM, n = 8, before drug 0.480 s): 0.576 s

Molecule: O=c1[nH]c2ccccc2n1C1CCN(CCCC(c2ccc(F)cc2)c2ccc(F)cc2)CC1 [pimozide]
- Effect on QTc interval (in words) [2]: statistically significant increase in the corrected QT interval
- AV block ([2]; 3 dpf larvae): induced an atrioventricular (AV) block
- Mean QTc interval duration, After ([2]; pimozide 50 µM, n = 8, before drug 0.491 s): 0.629 s
- Mean QTc interval duration, After ([2]; pimozide 100 µM, n = 8, before drug 0.470 s): 0.610 s

Molecule: CC(C)(C)c1ccc(C(O)CCCN2CCC(C(O)(c3ccccc3)c3ccccc3)CC2)cc1 (stereo not drawn) [terfenadine]
- Arrhythmia, ECG screenshot ([2]; 50 µM terfenadine, after 40 minutes of treatment, 3 dpf larva): arrhythmic phenotype with the presence of ectopic beats
- AV block ([2]; 3 dpf larvae): 2∶1 AV block
- AV block ([2]; 3 dpf larvae, listed as Terfenadine): induced an atrioventricular (AV) block
- Arrhythmia development ([2]; time and concentration-dependent, 3 dpf larvae): development of an arrhythmia
- Metabolism in zebrafish larvae [3]: almost completely metabolised to azacyclone and terfenadine alcohol

Molecule: COc1cc2c3cc1Oc1cc(ccc1O)C[C@@H]1c4c(cc(OC)c(O)c4Oc4ccc(cc4)C[C@@H]3N(C)CC2)CC[N+]1(C)C [tubocurarine]
- Effect on heart rate (ƒH) [2]: did not affect ƒH at any of the tested concentrations
- Mean interval duration QT [2, 8]: 0.3263 s
- Mean interval duration QTc [2, 8]: 0.4733 s
- Mean interval duration RR [2, 8]: 0.4755 s
- Mean interval duration QT [2, 9]: 0.3306 s
- Mean interval duration QTc [2, 9]: 0.4755 s
- Mean interval duration RR [2, 9]: 0.4863 s

Molecule: COc1ccc(CCN(C)CCCC(C#N)(c2ccc(OC)c(OC)c2)C(C)C)cc1OC (stereo not drawn) [verapamil]
- Effect on QTc interval (in words) [2]: increased the QTc interval
- Mean QTc interval duration, After ([2]; verapamil 10 µM, n = 8, before drug 0.482 s): 0.486 s
- Mean QTc interval duration, After ([2]; verapamil 25 µM, n = 8, before drug 0.478 s): 0.484 s
- Mean QTc interval duration, After ([2]; verapamil 50 µM, n = 8, before drug 0.471 s): 0.529 s
- Mean QTc interval duration, After ([2]; verapamil 100 µM, n = 8, before drug 0.473 s): 0.578 s
- Mean QTc interval duration, After ([2]; verapamil 200 µM, n = 8, before drug 0.484 s): 0.591 s
- Mean QTc interval duration, After ([2]; verapamil 300 µM, n = 8, before drug 0.477 s): 0.622 s
- Mean QTc interval duration, After ([2]; verapamil 400 µM, n = 8, before drug 0.481 s): 0.609 s
- Mean QTc interval duration, After ([2]; verapamil 1000 µM, n = 8, before drug 0.466 s): 0.616 s

Molecule: penicillin
- Effect on QTc interval (in words) [2]: no effect on the QTc interval
- Mean QTc interval duration, After ([2]; penicillin 0.1 µM, negative control, n = 8, before drug 0.497 s): 0.495 s
- Mean QTc interval duration, After ([2]; penicillin 0.3 µM, negative control, n = 8, before drug 0.487 s): 0.492 s
- Mean QTc interval duration, After ([2]; penicillin 10 µM, negative control, n = 8, before drug 0.490 s): 0.500 s
- Mean QTc interval duration, After ([2]; penicillin 30 µM, negative control, n = 8, before drug 0.494 s): 0.503 s
- Mean QTc interval duration, After ([2]; penicillin 50 µM, negative control, n = 8, before drug 0.489 s): 0.488 s
- Mean QTc interval duration, After ([2]; penicillin 100 µM, negative control, n = 8, before drug 0.506 s): 0.508 s
- Mean QTc interval duration, After ([2]; penicillin 200 µM, negative control, n = 8, before drug 0.478 s): 0.483 s
- Mean QTc interval duration, After ([2]; penicillin 300 µM, negative control, n = 8, before drug 0.457 s): 0.454 s
- Mean QTc interval duration, After ([2]; penicillin 400 µM, negative control, n = 8, before drug 0.514 s): 0.507 s
- Mean QTc interval duration, After ([2]; penicillin 1000 µM, negative control, n = 8, before drug 0.511 s): 0.501 s
